In patent publication US8114410B2, “Composition and methods for the inhibition of membrane fusion by paramyxoviruses” (priority 2001, dated 2012):

How the values were obtained:
[1] = test system: NiV-mediated fusion (HeLa cells expressing NiV F and G, U373 target cells)
live NiV = details: 56 μM
[2] = test system: HeV-mediated fusion (HeLa cells expressing HeV F and G, U373 target cells)

Compound | Inhibition of NiV-mediated fusion (in words) [1] | % Inhibition of focus formation (live NiV) [%] | Inhibition of HeV-mediated fusion (in words) [2] | IC50 [1] [nM] | IC50 [2] [nM]
CC[C@H](C)[C@H](NC(=O)[C@H](CCCCN)NC(=O)[C@H](CCC(N)=O)NC(=O)[C@H](C)NC(=O)[C@H](CCC(=O)O)NC(=O)[C@H](CCCCN)NC(=O)[C@@H](NC(=O)[C@H](Cc1ccc(O)cc1)NC(=O)[C@H](CC(=O)O)NC(=O)[C@H](CCCCN)NC(=O)[C@H](CO)NC(=O)[C@H](CCC(N)=O)NC(=O)[C@H](CCC(N)=O)NC(=O)[C@H](CC(C)C)NC(=O)[C@H](CO)NC(=O)[C@H](CCC(N)=O)NC(=O)[C@H](CC(N)=O)NC(=O)[C@H](CCSC)NC(=O)[C@H](CO)NC(=O)[C@H](CO)NC(=O)[C@@H](NC(=O)[C@H](CCC(N)=O)NC(=O)[C@H](CO)NC(=O)[C@H](CO)NC(=O)[C@@H](NC(=O)[C@H](CC(=O)O)NC(=O)[C@@H](NC(=O)[C@H](CCCCN)NC(=O)[C@H](CC(=O)O)NC(=O)[C@@H](NC(=O)[C@H](Cc1ccc(O)cc1)NC(=O)[C@@H](NC(=O)[C@@H]1CCCN1C(=O)[C@@H]1CCCN1)C(C)C)[C@@H](C)O)C(C)C)[C@@H](C)CC)[C@@H](C)CC)[C@@H](C)CC)C(=O)N[C@@H](CC(C)C)C(=O)N[C@@H](CC(=O)O)C(=O)N[C@H](C(=O)N[C@H](C(=O)N[C@@H](CC(N)=O)C(=O)N1CCC[C@H]1C(=O)N[C@@H](CO)C(=O)N[C@@H](CC(C)C)C(=O)O)C(C)C)[C@@H](C)O [FC1] | capable of inhibiting recombinant NiV-mediated fusion at slightly lower efficiencies | 91.8 | completely inhibit HeV-mediated fusion in the nM range |  | 
KPYTQSDVSMISLQSQKSINSLPSQIKDYVQKTVILAEDNP [ScHeV FC2, reference compound] | no inhibitory effect |  | no inhibitory effect |  | 
CC[C@H](C)[C@H](NC(=O)[C@H](CCCCN)NC(=O)[C@H](CCC(N)=O)NC(=O)[C@H](C)NC(=O)[C@H](CCC(=O)O)NC(=O)[C@H](CCCCN)NC(=O)[C@@H](NC(=O)[C@H](Cc1ccc(O)cc1)NC(=O)[C@H](CC(=O)O)NC(=O)[C@H](CCCCN)NC(=O)[C@H](CO)NC(=O)[C@H](CCC(N)=O)NC(=O)[C@H](CCC(N)=O)NC(=O)[C@H](CC(C)C)NC(=O)[C@H](CO)NC(=O)[C@H](CCC(N)=O)NC(=O)[C@H](CC(N)=O)NC(=O)[C@H](CCSC)NC(=O)[C@H](CO)NC(=O)[C@H](CO)NC(=O)[C@@H](NC(=O)[C@H](CCC(N)=O)NC(=O)[C@H](CO)NC(=O)[C@H](CO)NC(=O)[C@@H](NC(=O)[C@H](CC(=O)O)NC(=O)[C@@H](NC(=O)[C@H](CCCCN)NC(=O)[C@H](CC(=O)O)NC(=O)[C@@H](NC(=O)[C@H](Cc1ccc(O)cc1)NC(=O)[C@@H](NC(=O)[C@@H]1CCCN1C(=O)[C@@H]1CCCN1)C(C)C)[C@@H](C)O)C(C)C)[C@@H](C)CC)[C@@H](C)CC)[C@@H](C)CC)C(=O)N[C@@H](CC(C)C)C(=O)N[C@@H](CC(=O)O)C(=O)N[C@H](C(=O)N[C@H](C(=O)N[C@@H](CC(N)=O)C(=O)N1CCC[C@H]1C(=O)N[C@@H](CO)C(=O)N[C@@H](CC(C)C)C(=O)O)C(C)C)[C@@H](C)O [HeV FC2] | completely inhibitory in the nM range |  | completely inhibitory in the nM range | 5.2 to 5.8 | 5.2 to 5.8
